Patent US10723707B2, “Heterocyclic substituted 2-amino quinazoline derivatives for the treatment of viral infections” (JANSSEN SCIENCES IRELAND UNLIMITED COMPANY, priority 2012, dated 2020)

Legend:
Format in all cases: cell-based
[1] = target: T1, human TLR7 (Homo sapiens, UniProt Q9NYK1); assay: TLR7 cellular NFκB-luc reporter assay in transiently transfected HEK293 cells; details: lowest effective concentration, 6 hours incubation
T1 construct: expressed in transfected cells; host or cells: HEK293
T1 sequence (Q9NYK1 27-1049): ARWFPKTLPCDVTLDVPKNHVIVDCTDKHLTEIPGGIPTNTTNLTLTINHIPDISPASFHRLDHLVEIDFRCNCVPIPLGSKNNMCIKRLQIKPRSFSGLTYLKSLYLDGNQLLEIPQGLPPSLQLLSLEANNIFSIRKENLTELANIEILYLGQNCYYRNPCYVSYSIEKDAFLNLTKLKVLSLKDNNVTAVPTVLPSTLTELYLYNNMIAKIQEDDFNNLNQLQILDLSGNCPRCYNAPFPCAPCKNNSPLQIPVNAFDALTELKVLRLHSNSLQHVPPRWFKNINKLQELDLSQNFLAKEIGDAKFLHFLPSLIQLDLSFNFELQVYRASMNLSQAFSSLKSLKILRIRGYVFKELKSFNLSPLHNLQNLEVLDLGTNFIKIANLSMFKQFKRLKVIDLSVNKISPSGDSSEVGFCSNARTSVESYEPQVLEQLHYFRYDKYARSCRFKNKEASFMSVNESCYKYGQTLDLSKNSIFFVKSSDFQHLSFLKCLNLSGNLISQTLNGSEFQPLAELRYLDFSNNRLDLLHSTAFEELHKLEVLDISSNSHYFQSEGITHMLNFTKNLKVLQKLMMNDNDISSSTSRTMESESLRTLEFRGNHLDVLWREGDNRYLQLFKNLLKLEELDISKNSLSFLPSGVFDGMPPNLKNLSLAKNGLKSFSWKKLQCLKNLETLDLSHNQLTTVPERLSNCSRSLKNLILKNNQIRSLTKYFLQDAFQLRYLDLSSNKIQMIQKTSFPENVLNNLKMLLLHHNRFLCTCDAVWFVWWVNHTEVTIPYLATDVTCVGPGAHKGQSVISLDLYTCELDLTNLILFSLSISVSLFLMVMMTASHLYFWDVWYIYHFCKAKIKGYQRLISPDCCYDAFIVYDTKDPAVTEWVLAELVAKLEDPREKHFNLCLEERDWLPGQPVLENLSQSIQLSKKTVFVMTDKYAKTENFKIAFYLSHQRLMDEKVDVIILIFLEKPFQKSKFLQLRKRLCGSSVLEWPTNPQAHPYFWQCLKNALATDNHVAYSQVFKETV
Description: (§1) The ability of compounds to activate human TLR7 and/or TLR8 was assessed in a cellular reporter assay using HEK293 cells transiently transfected with a TLR7 or TLR8 expression vector and NFκB-luc reporter construct.
(§2) Briefly, HEK293 cells were grown in culture medium (DMEM supplemented with 10% FCS and 2 mM Glutamine). For transfection of cells in 15 cm dishes, cells were detached with Trypsin-EDTA, transfected with a mix of CMV-TLR7 or TLR8 plasmid (1700 ng), NFκB-luc plasmid (850 ng) and a transfection reagent and incubated for 48 h at 37° C. in a humidified 5% CO2 atmosphere. Transfected cells were then washed in PBS, detached with Trypsin-EDTA and resuspended in medium to a density of 1.25×10^5 cells/mL. Forty microliters of cells were then dispensed into each well in 384-well plates, where 200 nL of compound in 100% DMSO was already present. Following 6 hours incubation at 37° C., 5% CO2, the luciferase activity was determined by adding 15 μL of Steady Lite Plus substrate (Perkin Elmer) to each well and readout performed on a ViewLux ultraHTS microplate imager (Perkin Elmer). Dose response curves were generated from measurements performed in quadruplicates. Lowest effective concentrations (LEC) values, defined as the concentration that induces an effect which is at least two fold above the standard deviation of the assay, were determined for each compound.

[2] = target: T2, human TLR8 (Homo sapiens, UniProt Q9NR97); assay: TLR8 cellular NFκB-luc reporter assay in transiently transfected HEK293 cells; details: lowest effective concentration, 6 hours incubation
T2 construct: expressed in transfected cells; host or cells: HEK293
T2 sequence (Q9NR97 27-1041): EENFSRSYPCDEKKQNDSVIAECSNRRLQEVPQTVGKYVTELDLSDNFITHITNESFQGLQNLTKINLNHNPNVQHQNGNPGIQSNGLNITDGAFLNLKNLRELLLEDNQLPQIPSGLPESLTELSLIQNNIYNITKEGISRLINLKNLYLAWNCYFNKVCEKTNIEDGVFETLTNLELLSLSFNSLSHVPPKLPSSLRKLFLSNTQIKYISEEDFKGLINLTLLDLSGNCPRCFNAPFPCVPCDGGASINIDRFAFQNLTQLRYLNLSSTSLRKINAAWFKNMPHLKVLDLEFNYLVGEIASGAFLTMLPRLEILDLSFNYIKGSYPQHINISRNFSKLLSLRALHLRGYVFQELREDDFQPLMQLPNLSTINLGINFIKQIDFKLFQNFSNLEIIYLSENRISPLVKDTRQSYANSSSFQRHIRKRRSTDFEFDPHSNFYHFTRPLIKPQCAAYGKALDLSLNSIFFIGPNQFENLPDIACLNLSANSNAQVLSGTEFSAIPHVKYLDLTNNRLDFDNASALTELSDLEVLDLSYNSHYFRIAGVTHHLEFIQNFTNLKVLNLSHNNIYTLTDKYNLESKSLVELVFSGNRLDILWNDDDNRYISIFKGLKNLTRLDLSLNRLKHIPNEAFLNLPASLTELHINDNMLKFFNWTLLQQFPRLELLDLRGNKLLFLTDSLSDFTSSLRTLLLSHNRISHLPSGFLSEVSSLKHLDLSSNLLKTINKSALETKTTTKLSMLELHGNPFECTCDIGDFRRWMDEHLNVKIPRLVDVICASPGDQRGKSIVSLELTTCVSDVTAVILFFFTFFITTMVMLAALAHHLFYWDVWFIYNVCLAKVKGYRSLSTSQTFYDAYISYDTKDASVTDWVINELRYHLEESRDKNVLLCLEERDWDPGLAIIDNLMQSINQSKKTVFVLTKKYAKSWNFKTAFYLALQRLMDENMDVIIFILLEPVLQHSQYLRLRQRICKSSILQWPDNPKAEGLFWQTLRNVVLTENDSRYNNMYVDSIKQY
Description: as §1, §2

[3] = tested on: interferon-stimulated responsive elements (ISRE); assay: Activation of ISRE promoter elements in HEK-ISREluc cells by conditioned media from PBMC; details: Homo sapiens, compound concentration applied to PBMCs, supernatant transferred to HEK-ISREluc cells, 24 hours, read-out: HEK-ISRE luc (LEC)
Description: The potential of compounds to induce IFN-I was also evaluated by measuring the activation of interferon-stimulated responsive elements (ISRE) by conditioned media from PBMC. The ISRE element of sequence GAAACTGAAACT (SEQ ID: 1) is highly responsive to the STAT1-STAT2-IRF9 transcription factor, activated upon binding of IFN-I to their receptor IFNAR (Clontech, PT3372-5W). The plasmid pISRE-Luc from Clontech (ref. 631913) contains 5 copies of this ISRE element, followed by the firefly luciferase ORF. A HEK293 cell line stably transfected with pISRE-Luc (HEK-ISREluc) was established to profile the conditioned PBMC cell culture media.
Briefly, PBMCs were prepared from buffy coats of at least two donors using a standard Ficoll centrifugation protocol. Isolated PBMCs were resuspended in RPMI medium supplemented with 10% human AB serum and 2×10^5 cells/well were dispensed into 384-well plates containing compounds (70 μL total volume). After overnight incubation, 10 μL of supernatant was transferred to 384-well plates containing 5×10^3 HEK-ISREluc cells/well in 30 μL (plated the day before). Following 24 hours of incubation, activation of the ISRE elements was measured by assaying luciferase activity using 40 μL/well Steady Lite Plus substrate (Perkin Elmer) and measured with ViewLux ultraHTS microplate imager (Perkin Elmer). The stimulating activity of each compound on the HEK-ISREluc cells was reported as LEC value, defined as the compound concentration applied to the PBMCs resulting in a luciferase activity at least two fold above the standard deviation of the assay. The LEC in turn indicates the degree of ISRE activation on transfer of a defined amount of PBMC culture medium. Recombinant interferon α-2a (Roferon-A) was used as a standard control compound.

| Compound | Human TLR 7 (LEC) [1] | Human TLR 8 (LEC) [2] | minimal effective concentration [3] |
| --- | --- | --- | --- |
| Cc1cc(CNc2nc(N)nc3c(F)cccc23)no1 [Compound 14] | 0.65 µM | >25 µM | 0.13 µM |
| COc1cccc2nc(N)nc(N[C@@H](C)[C@H](O)c3ccccc3)c12 [Compound 15] | 0.61 µM | >25 µM | 0.56 µM |
| Nc1nc(N[C@@H](CO)[C@@H](O)c2ccccc2)c2ccccc2n1 [Compound 17] | 0.83 µM | 5.51 µM | 0.16 µM |
| Cc1cc(CNc2nc(N)nc3cccc(C)c23)no1 [Compound 19] | 0.11 µM | 1.74 µM | 0.051 µM |
| CNC(=O)c1ccc2c(NC(C)c3ccccn3)nc(N)nc2c1 (stereo not drawn) [Compound 22] | 14.7 µM | >25 µM | 2.2 µM |
| CC(Nc1nc(N)nc2cc(C(=O)N(C)C)ccc12)c1ccccn1 (stereo not drawn) [Compound 23] | 6.67 µM | >25 µM | 1.62 µM |
| CC(Nc1nc(N)nc2cc(C(=O)N(C)C(C)C)ccc12)c1ccccn1 (stereo not drawn) [Compound 24] | 14.3 µM | 11.0 µM | 1.75 µM |
| Cc1cc(CNc2nc(N)nc3cccc(CO)c23)no1 [Compound 30] | 0.63 µM | 9.0 µM | 0.14 µM |
| COc1ccc(F)c2nc(N)nc(NCc3cc(C)on3)c12 [Compound 31] | 0.74 µM | >25 µM | 0.46 µM |
